Measured values: US11739101B2, “Bifunctional degraders of hematopoietic progenitor kinase and therapeutic uses thereof” (Nurix Therapeutics, Inc., priority 2020, dated 2023)

The molecules below were run against T1, HPK1 (Homo sapiens, UniProt Q92918) (assay: HPK1 Cellular HiBiT Degradation Assay). Settings: HiBiT-tagged HPK1 Jurkat cells, 24 hours, 10 uM to 0.1 nM; Dmax = 100 minus lowest % HPK1 remaining vs DMSO vehicle.
T1 construct: A HiBiT tag was introduced by CRISPR on the N terminus of HPK1 in Jurkat cells; host or cells: Jurkat (ATCC TIB-152), monoclonal CRISPR HiBiT knock-in line
T1 sequence (Q92918 whole entry): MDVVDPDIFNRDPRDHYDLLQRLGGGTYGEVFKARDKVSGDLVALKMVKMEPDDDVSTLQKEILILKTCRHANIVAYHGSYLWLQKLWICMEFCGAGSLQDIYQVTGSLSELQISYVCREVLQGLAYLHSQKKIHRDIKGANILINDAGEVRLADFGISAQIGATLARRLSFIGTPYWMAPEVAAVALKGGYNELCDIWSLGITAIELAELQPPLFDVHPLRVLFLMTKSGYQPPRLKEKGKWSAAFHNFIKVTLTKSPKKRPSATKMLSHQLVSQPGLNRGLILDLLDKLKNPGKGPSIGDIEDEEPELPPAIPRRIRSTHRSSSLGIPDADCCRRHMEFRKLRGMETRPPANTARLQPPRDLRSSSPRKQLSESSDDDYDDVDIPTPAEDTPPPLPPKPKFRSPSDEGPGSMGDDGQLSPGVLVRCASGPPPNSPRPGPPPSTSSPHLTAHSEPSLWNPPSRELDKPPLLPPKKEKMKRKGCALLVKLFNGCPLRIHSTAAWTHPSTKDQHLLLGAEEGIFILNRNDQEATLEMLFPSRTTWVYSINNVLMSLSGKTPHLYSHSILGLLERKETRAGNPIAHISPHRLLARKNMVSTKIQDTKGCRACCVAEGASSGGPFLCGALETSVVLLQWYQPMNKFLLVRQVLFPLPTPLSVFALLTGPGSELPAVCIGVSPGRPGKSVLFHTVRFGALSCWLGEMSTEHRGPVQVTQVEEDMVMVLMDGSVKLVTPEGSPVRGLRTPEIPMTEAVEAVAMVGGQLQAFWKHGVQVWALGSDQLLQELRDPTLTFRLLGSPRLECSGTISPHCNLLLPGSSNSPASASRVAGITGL
Format: cell-based
Experimental: HiBiT HPK1 Jurkat cell lines were used to evaluate the total protein levels of HPK1 in a robust human cellular high throughput format. The level of HPK1 remaining following treatment with HPK1 CTMs is reported as Dmax (maximum degradation) achieved at 24 hours when compared to vehicle treated controls. […] These decreases were not a result of cytotoxicity measured by a parallel viability assessment (CTG). See also Table 1.
A HiBiT tag was introduced by CRISPR on the N terminus of HPK1 in Jurkat cells (ATCC® TIB-152) to allow quantitation of HPK1 protein levels in a monoclonal human cell line. Cells were plated at 1×10^6 cells/mL, 30 uL/well (3×10^4 cells/well) in complete RPMI 1640 (10% heat inactivated FBS, 1% L-glutamine) in 384-well assay plates (Corning, cat. no. 3570). HPK1 chimeric targeting molecules (CTMs) were added in an 11-point dilution series (3.16-fold) with a final assay concentration range of 10 uM to 0.1 nM. The parental Jurkat cell line, with no HiBiT insertion, was included in the assay as a background control. Cells treated with a DMSO vehicle control were used to determine the maximum signal defining 100% HPK1 in the cell. Cells were incubated for 24 hours at 37° C./5% CO2. Following incubation, 30 uL of complete Nano-Glo HiBiT Lytic Detection Reagent (Promega cat. no. N3040) was added. Cells were incubated for 10 minutes at room temperature and luminescence was read on an EnVision plate reader (Perkin Elmer, 0.1 sec per well). Parallel plates were assessed for viability using Cell Titer Glo (Promega) and read on an EnVision plate reader to ensure results were not the effect of cytotoxicity. Percent HPK1 remaining per sample was calculated as follows: […]
% HPK1 remaining values were plotted as a function of compound concentration and curves were fit using the Prism (GraphPad) equation “log(inhibitor) vs response−Variable slope (four parameters)”. Dmax values were calculated by identifying the lowest % remaining and subtracting from 100. Dmax values are provided in Table 1, wherein A>65%, 45%≤B≤65% and C<45%.
`Cc1cc(F)c(Nc2nc(-c3ccc4c(c3)N([C@H]3C[C@@H](N5CCCCC5)C3)C(=O)C43CCN(C(=O)CCCCCC(=O)N[C@H](C(=O)N4C[C@H](O)C[C@H]4C(=O)N[C@@H](C)c4ccc(-c5scnc5C)cc4)C(C)(C)C)CC3)cc3ncn(C(C)C)c23)cc1C(=O)NC(C)C` [Example 7, (2S,4R)-1-((S)-2-(7-(6-(4-((2-fluoro-5-(isopropylcarbamoyl)-4-methylphenyl)amino)-3-isopropyl-3H-imidazo[4,5-c]pyridin-6-yl)-2-oxo-1-((1s,3s)-3-(piperidin-1-yl)cyclobutyl)spiro[indoline-3,4′-piperidin]-1′-yl)-7-oxoheptanamido)-3,3-dimethylbutanoyl)-4-hydroxy-N—((S)-1-(4-(4-methylthiazol-5-yl)phenyl)ethyl)pyrrolidine-2-carboxamide] gave a Dmax greater than 65%. `Cc1cc(F)c(Nc2nc(-c3ccc4c(c3)N([C@H]3C[C@@H](N5CCCCC5)C3)C(=O)C43CCN(C(=O)CCOCCNc4cccc5c4C(=O)N(C4CCC(=O)NC4=O)C5=O)CC3)cc3ncn(C(C)C)c23)cc1C(=O)NC(C)C` (stereo partly drawn) [Example 11, 5-((6-(1′-(3-(2-((2-(2,6-dioxopiperidin-3-yl)-1,3-dioxoisoindolin-4-yl)amino)ethoxy)propanoyl)-2-oxo-1-((1s,3s)-3-(piperidin-1-yl)cyclobutyl)spiro[indoline-3,4′-piperidin]-6-yl)-3-isopropyl-3H-imidazo[4,5-c]pyridin-4-yl)amino)-4-fluoro-N-isopropyl-2-methylbenzamide] showed a Dmax of less than 45%. With `Cc1cc(F)c(Nc2nc(-c3ccc4c(c3)N([C@H]3C[C@@H](N5CCCCC5)C3)C(=O)C43CCN(C(=O)C4(C)CCN(C(=O)C5CCN(c6ccc7c(c6)C(=O)N(C6CCC(=O)NC6=O)C7=O)CC5)CC4)CC3)cc3ncn(C(C)C)c23)cc1C(=O)NC(C)C` (stereo partly drawn) [Example 74, 5-[(6-{1′-[1-(1-{2-[2,6-dioxopiperidin-3-yl]-1,3-dioxoisoindol-5-yl}piperidine-4-carbonyl)-4-methylpiperidine-4-carbonyl]-2-oxo-1-[(1s,3s)-3-(piperidin-1-yl)cyclobutyl]spiro[indole-3,4′-piperidin]-6-yl}-3-isopropylimidazo[4,5-c]pyridin-4-yl)amino]-4-fluoro-N-isopropyl-2-methylbenzamide] the Dmax was 45 to 65%. For `Cc1cc(F)c(Nc2nc(-c3ccc4c(c3)N([C@H]3C[C@@H](N5CCCCC5)C3)C(=O)C43CCN(C(=O)C4CN(C5CCN(c6ccc7c(c6)C(=O)N(C6CCC(=O)NC6=O)C7=O)CC5)C4)CC3)cc3ncn(C(C)C)c23)cc1C(=O)NC(C)C` (stereo partly drawn) [Example 24, 5-[(6-{1′-[1-(1-{2-[2,6-dioxopiperidin-3-yl]-1,3-dioxo-2,3-dihydro-1H-isoindol-5-yl}piperidin-4-yl)azetidine-3-carbonyl]-2-oxo-1-[(1s,3s)-3-(piperidin-1-yl)cyclobutyl]-1,2-dihydrospiro[indole-3,4′-piperidin]-6-yl}-3-(propan-2-yl)-3H-imidazo[4,5-c]pyridin-4-yl)amino]-4-fluoro-2-methyl-N-(propan-2-yl)benzamide], the Dmax was less than 45%. `Cc1cc(F)c(Nc2nc(-c3ccc4c(c3)N([C@H]3C[C@@H](N5CCCCC5)C3)C(=O)C43CCN(C(=O)[C@H]4CCN(C(=O)[C@H]5CC[C@H](Nc6cccc7c6C(=O)N(C6CCC(=O)NC6=O)C7=O)CC5)C4)CC3)cc3ncn(C(C)C)c23)cc1C(=O)NC(C)C` (stereo partly drawn) [Example 87, 5-((6-(1′-((3S)-1-((1R,4S)-4-((2-(2,6-dioxopiperidin-3-yl)-1,3-dioxoisoindolin-4-yl)amino)cyclohexane-1-carbonyl)pyrrolidine-3-carbonyl)-2-oxo-1-((1s,3R)-3-(piperidin-1-yl)cyclobutyl)spiro[indoline-3,4′-piperidin]-6-yl)-3-isopropyl-3H-imidazo[4,5-c]pyridin-4-yl)amino)-4-fluoro-N-isopropyl-2-methylbenzamide] was tested, and the Dmax was less than 45%. `Cc1cc(F)c(Nc2nc(-c3ccc4c(c3)N([C@H]3C[C@@H](N5CCCCC5)C3)C(=O)C43CCN(C(=O)C4CCN(C(=O)C5CCN(c6ccc7c(c6)C(=O)N(C6CCC(=O)NC6=O)C7=O)CC5)C4)CC3)cc3ncn(C(C)C)c23)cc1C(=O)NC(C)C` (stereo partly drawn) [Example 40] was tested, and the Dmax was 45 to 65%.
